Experimental data published in ChEMBL document CHEMBL5550184, “Structure-activity relationships of middle-size cyclic peptides, KRAS inhibitors derived from an mRNA display” (Bioorg Med Chem, 2024).
Starred links: 1 amine or outer side, 2 acyl side, 3 side chain; linkers in the order of their positions; H or OH if unused. Positions of bridges follow the written chain, without caps; N, C: chain ends. Non-standard residues stand in square brackets, D forms with d. Residues, ends and D or L forms follow the SMILES beside them. *: point of attachment. hPhe(3-Cl-4-CF3) = N[C@@H](CCc1ccc(C(F)(F)F)c(Cl)c1)C(=O)O; X2 = CN([C@@H](CC(=O)[*:2])C(=O)n1cccc1)[*:1]; NMePhe(4-Cl) = CN[C@@H](Cc1ccc(Cl)cc1)C(=O)O; NMeAla(cPent) = CN[C@@H](CC1CCCC1)C(=O)O; Phe(3-Cl) = N[C@@H](Cc1cccc(Cl)c1)C(=O)O; NMeGly(cPent) = CN[C@H](C(=O)O)C1CCCC1; NMeCha = CN[C@@H](CC1CCCCC1)C(=O)O; NMeCba = CN[C@@H](CC1CCC1)C(=O)O; NMeChg = CN[C@H](C(=O)O)C1CCCCC1; NMeF = CN[C@@H](Cc1ccccc1)C(=O)O; NMeD = CN[C@@H](CC(=O)O)C(=O)O; NMeL = CN[C@@H](CC(C)C)C(=O)O; NMeV = CN[C@H](C(=O)O)C(C)C; NMeA = CN[C@@H](C)C(=O)O; Piperidide = C1CCN(*)CC1; Ac5c = NC1(C(=O)O)CCCC1; Aze = O=C(O)[C@@H]1CCN1; Sar = CNCC(=O)O

Experiments:
[1] = Apparent permeability in human Caco-2 cells incubated for 180 mins by LC-MS/MS method; assay type: ADME, cell-based
[2] = system: ASPC1; assay: Cytotoxicity against human AsPC1 cells assessed as reduction in cell viability incubated for 7 days by CellTiterGlo Luminescent Cell Viability Assay; assay type: functional, cell-based; settings: ASPC1, 168 h
[3] = Inhibition of biotin-tagged KRAS G12D mutant (unknown origin) to recombinant His-tagged SOS1 (unknown origin) protein-protein interaction incubated for 120 mins by AlphaLISA method; set-up: species or system Homo sapiens

With `CC[C@H](C)[C@@H]1NC(=O)[C@H](CC(C)C)N(C)C(=O)C[C@@H](C(=O)N2CCCCC2)N(C)C(=O)[C@H](C2CCCCC2)N(C)C(=O)C2(CCCC2)NC(=O)[C@@H]2CCCN2C(=O)[C@H](CCc2ccc(C(F)(F)F)c(Cl)c2)NC(=O)CN(C)C(=O)[C@H](CC2CCCCC2)N(C)C(=O)[C@@H]2CCN2C(=O)[C@H](C)N(C)C1=O` ([NMeL]I[NMeA][Aze][NMeCha][Sar][hPhe(3-Cl-4-CF3)]P[Ac5c][NMeChg][NMeD]-Piperidide; lactam N-11) the Papp at 3 h [1] was 0.97 ×10⁻⁶ cm/s, the IC50 [2] was 140 nM and the IC50 [3] was < 2 nM.

`CC[C@H](C)[C@@H]1NC(=O)[C@H](CC(C)C)N(C)C(=O)C[C@@H](C(=O)N2CCCCC2)N(C)C(=O)[C@H](C(C)C)N(C)C(=O)C2(CCCC2)NC(=O)[C@@H]2CCCN2C(=O)[C@H](CCc2ccc(C(F)(F)F)c(Cl)c2)NC(=O)CN(C)C(=O)[C@H](CC2CCCCC2)N(C)C(=O)[C@@H]2CCN2C(=O)[C@H](C)N(C)C1=O` ([NMeL]I[NMeA][Aze][NMeCha][Sar][hPhe(3-Cl-4-CF3)]P[Ac5c][NMeV][NMeD]-Piperidide; lactam N-11) showed a Papp at 3 h [1] of 1.3 ×10⁻⁶ cm/s, an IC50 [2] of 110 nM and an IC50 [3] of 4.1 nM.

With `CC[C@H](C)[C@@H]1NC(=O)[C@H](C)N(C)C(=O)C[C@@H](C(=O)n2cccc2)N(C)C(=O)[C@H](CC(C)C)N(C)C(=O)[C@H](Cc2ccccc2)N(C)C(=O)[C@H](Cc2ccccc2)NC(=O)[C@H](Cc2cccc(Cl)c2)NC(=O)CN(C)C(=O)[C@H](Cc2ccc(Cl)cc2)N(C)C(=O)CN(C)C(=O)CN(C)C1=O` (cyclo(F[NMeF][NMeL][X2][NMeA]I[Sar][Sar][NMePhe(4-Cl)][Sar][Phe(3-Cl)])) the Papp at 3 h [1] was 0.87 ×10⁻⁶ cm/s, the IC50 [2] was > 20000 nM and the IC50 [3] was 36 nM.

`CC[C@H](C)[C@@H]1NC(=O)[C@H](CC2CCC2)N(C)C(=O)C[C@@H](C(=O)N2CCCCC2)N(C)C(=O)[C@H](C(C)C)N(C)C(=O)C2(CCCC2)NC(=O)[C@@H]2CCCN2C(=O)[C@H](CCc2ccc(C(F)(F)F)c(Cl)c2)NC(=O)CN(C)C(=O)[C@H](CC2CCCCC2)N(C)C(=O)CN(C)C(=O)CN(C)C1=O` ([NMeCba]I[Sar][Sar][NMeCha][Sar][hPhe(3-Cl-4-CF3)]P[Ac5c][NMeV][NMeD]-Piperidide; lactam N-11) gave a Papp at 3 h [1] of 0.41 ×10⁻⁶ cm/s, an IC50 [2] of 790 nM and an IC50 [3] of 10 nM.

For `CC[C@H](C)[C@@H]1NC(=O)[C@H](C2CCCC2)N(C)C(=O)C[C@@H](C(=O)N2CCCCC2)N(C)C(=O)[C@H](C(C)C)N(C)C(=O)C2(CCCC2)NC(=O)[C@@H]2CCCN2C(=O)[C@H](CCc2ccc(C(F)(F)F)c(Cl)c2)NC(=O)CN(C)C(=O)[C@H](CC2CCCCC2)N(C)C(=O)CN(C)C(=O)CN(C)C1=O` ([NMeGly(cPent)]I[Sar][Sar][NMeCha][Sar][hPhe(3-Cl-4-CF3)]P[Ac5c][NMeV][NMeD]-Piperidide; lactam N-11), the Papp at 3 h [1] was 0.75 ×10⁻⁶ cm/s, the IC50 [2] was 210 nM and the IC50 [3] was 4.3 nM.

For `CC[C@H](C)[C@@H]1NC(=O)[C@H](CC(C)C)N(C)C(=O)C[C@@H](C(=O)N2CCCCC2)N(C)C(=O)[C@H](C)N(C)C(=O)C2(CCCC2)NC(=O)[C@@H]2CCCN2C(=O)[C@H](CCc2ccc(C(F)(F)F)c(Cl)c2)NC(=O)CN(C)C(=O)[C@H](CC2CCCCC2)N(C)C(=O)[C@@H]2CCN2C(=O)[C@H](C)N(C)C1=O` ([NMeL]I[NMeA][Aze][NMeCha][Sar][hPhe(3-Cl-4-CF3)]P[Ac5c][NMeA][NMeD]-Piperidide; lactam N-11), the Papp at 3 h [1] was 0.97 ×10⁻⁶ cm/s, the IC50 [2] was 5200 nM and the IC50 [3] was > 1000 nM.

Work on `CC[C@H](C)[C@@H]1NC(=O)[C@H](CC2CCCC2)N(C)C(=O)C[C@@H](C(=O)N2CCCCC2)N(C)C(=O)[C@H](C(C)C)N(C)C(=O)C2(CCCC2)NC(=O)[C@@H]2CCCN2C(=O)[C@H](CCc2ccc(C(F)(F)F)c(Cl)c2)NC(=O)CN(C)C(=O)[C@H](CC2CCCCC2)N(C)C(=O)CN(C)C(=O)CN(C)C1=O` ([NMeAla(cPent)]I[Sar][Sar][NMeCha][Sar][hPhe(3-Cl-4-CF3)]P[Ac5c][NMeV][NMeD]-Piperidide; lactam N-11) yielded a Papp at 3 h [1] of 0.41 ×10⁻⁶ cm/s, an IC50 [2] of 730 nM and an IC50 [3] of 13 nM.
